# According to patent publication US20110118275A1, “OXAZOLO[4,5-c]PYRIDINE SUBSTITUTED PYRAZINE” (ASTRAZENECA AB, priority 2009, published 2011):
# Key:
# [1] = Hygroscopicity by Dynamic Vapor Sorption (DVS); assay type: physicochemical; conditions: 25° C.
# Description: Description of the Dynamic Vapor Sorption (DVS) Method Used
# The weight change over time as a function of relative humidity (RH) at 25° C. was measured in a DVS Advantage, equipped with a SMS ultrabalance using DVS Advantage Control Software Version 1.2.0.21, from Surface Measurement Systems, London, UK.
# Carrier gas was nitrogen 200 ml/minute. The sample amount was circa 10 mg. The equilibrium criteria, for each step, was set to 0.002%/minute with DMDT Window 5 minutes, DMDT Min Time 10 minutes and DMDT Max Time 360 minutes as defined in the Control Software. DMDT uses the percentage rate of change of mass with time (dm/dt) to determine whether a sample has come to equilibrium.
# DMDT Window (min): The time window, over which a straight line is fitted to the mass data in order to calculate a value of dm/dt.
# DMDT Min Time (min): The time that the measured dm/dt must satisfy the specified dm/dt criteria before switching to the next Method Stage.
# DMDT Max Time (min): The maximum time a Method Stage will run in dm/dt mode before switching to the next Method Stage—regardless of whether the dm/dt criterion has been satisfied.
# The sample was initially dried at 0% RH and the water vapor sorption was measured as weight gain after stepwise increase to 10, 20, 30, 40, 50, 60, 70, 80, 90 and 95% relative humidity. After stepwise drying using the same relative humidities in reverse order down to 0% RH a second sorption curve was obtained.
# recombinant human GSK3β = biological target: T1, recombinant human GSK3β (Homo sapiens, UniProt P49841); assay: Determination of GSK3β activity in Scintillation Proximity Assay; assay type: biochemical; conditions: Km of ATP 3 μM used to calculate Ki; 1 μmol/L ATP; read-out: mean GSKβ Ki value
# T1 construct: purchased Dundee University, UK
# Description: Determination of GSK3β activity in Scintillation Proximity Assay.
# The inhibition experiments were carried out in duplicate with 10 concentrations of the inhibitor in 384 well clear-bottom microtitre plates. A biotinylated peptide substrate (Biotin-Ala-Ala-Glu-Glu-Leu-Asp-Ser-Arg-Ala-Gly-Ser(PO3H2)-Pro-Gln-Leu (AstraZeneca, Lund)), was added at a final concentration of 1 μmol/L in an assay buffer (pH 7.0) containing 0.6 mU recombinant human GSK3β (Dundee University, UK), (˜5 nmol/L active enzyme), 10 mmol/L morpholinepropanesulfonic acid (MOPS), 0.3 mmol/L EDTA, 0.01% (v/v) (3-mercaptoethanol, 0.003% (w/v) polyethylene 23 lauryl ether (Brij 35), 0.4% glycerol and 0.02 mg bovine serum albumine (BSA) and preincubated for 10 minutes. The reaction was initiated by the addition of 0.06 μCi [γ-33P]ATP (Amersham, UK) and unlabelled ATP in 30 mmol/L Mg(Ac)2 to a final concentration of 1 μmol/L ATP. The final assay volume was 15 μL. Blank controls without peptide substrate were used. After incubation for 15 min at room temperature, the reaction was terminated by the to addition of stop solution containing 1.3 mmol/L EDTA, 13 μmol/L ATP, 0.02% Triton™X-100 and 0.15 mg streptavidin coated SPA beads. After a 5 minutes centrifugation at 2000 rpm, the radioactivity was measured in a liquid scintillation counter (1450 MicroBeta Trilux, Perkin Elmer, Finnland). […]
# [2] = biological target: T2, recombinant Axl tyrosine kinase (Homo sapiens, UniProt P30530); assay: In vitro Axl kinase assay (AlphaScreen); assay type: biochemical; conditions: Ki calculated from IC50, Km for ATP 0.2 μM
# T2 construct: GST (N); made in house; host or cells: SF126 insect cells
# T2 sequence (P30530 473-894): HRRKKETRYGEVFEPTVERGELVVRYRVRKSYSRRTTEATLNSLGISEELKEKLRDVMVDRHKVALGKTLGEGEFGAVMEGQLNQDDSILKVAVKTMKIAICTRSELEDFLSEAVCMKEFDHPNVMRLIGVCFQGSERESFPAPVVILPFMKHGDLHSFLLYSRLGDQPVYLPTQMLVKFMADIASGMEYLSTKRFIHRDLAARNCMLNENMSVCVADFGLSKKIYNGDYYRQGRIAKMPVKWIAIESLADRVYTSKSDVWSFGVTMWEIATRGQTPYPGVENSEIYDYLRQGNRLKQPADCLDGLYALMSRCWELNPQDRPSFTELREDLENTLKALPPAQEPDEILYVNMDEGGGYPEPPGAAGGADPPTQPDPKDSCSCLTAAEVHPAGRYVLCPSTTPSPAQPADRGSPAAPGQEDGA
# Text: Determination of the In Vitro Axl Kinase Assay.
# The following assays can be used to measure the effects of the compounds of the present invention as inhibitors of Axl tyrosine kinase enzyme, as inhibitors in vitro of the phosphorylation of Axl expressed on NCI H1299 lung large cell carcinoma cells. The assay used AlphaScreen technology (Gray et al., Analytical Biochemistry, 2003, 313: 234-245) to determine the ability of test compounds to inhibit phosphorylation by recombinant Axl tyrosine kinase.
# N-terminal GST-Axl kinase domain encompassing amino acids 473 to 894 of Axl (GenBank Accession No NM_021913) was expressed in […] insect cells and purified using the GST epitope tag, using standard purification techniques.
# Test compounds were prepared as 10 mM stock solutions in dimethylsulphoxide (DMSO) and diluted in DMSO as required. […]
# Each reaction was stopped by the addition of 5 μl of a mixture of 500 mM EDTA, 3 mg/ml bovine serum albumin (BSA) and 20 mM Tris-HCl pH 7.4 buffer containing 40 ng/μl AlphaScreen Streptavidin donor and anti-p-Tyr-100 acceptor beads (Perkin Elmer, Catalogue No. 6760620M). The resultant signals arising from laser light excitation at 680 nm were read using a Packard Envision instrument. […]
# T1 sequence (P49841 whole entry): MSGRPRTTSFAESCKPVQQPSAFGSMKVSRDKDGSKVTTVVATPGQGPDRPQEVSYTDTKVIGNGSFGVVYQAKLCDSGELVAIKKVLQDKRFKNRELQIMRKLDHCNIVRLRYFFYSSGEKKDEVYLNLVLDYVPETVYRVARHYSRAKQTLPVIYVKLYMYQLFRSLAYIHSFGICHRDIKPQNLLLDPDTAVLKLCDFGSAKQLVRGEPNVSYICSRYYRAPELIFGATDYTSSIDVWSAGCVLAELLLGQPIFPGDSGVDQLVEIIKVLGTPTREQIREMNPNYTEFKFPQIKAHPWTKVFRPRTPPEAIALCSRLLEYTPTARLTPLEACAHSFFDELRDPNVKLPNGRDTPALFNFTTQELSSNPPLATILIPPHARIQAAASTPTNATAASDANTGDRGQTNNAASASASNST
smiles,measurement,setting,value
"CN1CCN(C(=O)c2ccc(-c3cnc(N)c(-c4nc5cnccc5o4)n3)cc2)CC1 [Example 1, (4-(5-Amino-6-(oxazolo[4,5-c]pyridin-2-yl)pyrazin-2-yl)phenyl)(4-methylpiperazin-1-yl)methanone]",Average weight gain,[1]; 0% RH,0.0%
same,Weight gain calculated as molar equivalents of water,[1]; 0% RH,0.0 molar equivalents of water
same,Weight gain first sorption curve,[1]; 0% RH,0.00%
same,Weight gain second sorption curve,[1]; 0% RH,0.00%
same,Average weight gain,[1]; 10% RH,0.1%
same,Weight gain calculated as molar equivalents of water,[1]; 10% RH,0.0 molar equivalents of water
same,Weight gain first sorption curve,[1]; 10% RH,0.12%
same,Weight gain second sorption curve,[1]; 10% RH,0.14%
same,Average weight gain,[1]; 20% RH,2.4%
same,Weight gain calculated as molar equivalents of water,[1]; 20% RH,0.5 molar equivalents of water
same,Weight gain first sorption curve,[1]; 20% RH,2.34%
same,Weight gain second sorption curve,[1]; 20% RH,2.41%
same,Average weight gain,[1]; 30% RH,3.1%
same,Weight gain calculated as molar equivalents of water,[1]; 30% RH,0.7 molar equivalents of water
same,Weight gain first sorption curve,[1]; 30% RH,3.09%
same,Weight gain second sorption curve,[1]; 30% RH,3.14%
same,Average weight gain,[1]; 60% RH,4.7%
same,Weight gain calculated as molar equivalents of water,[1]; 60% RH,1.1 molar equivalents of water
same,Weight gain first sorption curve,[1]; 60% RH,4.72%
same,Weight gain second sorption curve,[1]; 60% RH,4.65%
same,Average weight gain,[1]; 90% RH,9.2%
same,Weight gain calculated as molar equivalents of water,[1]; 90% RH,2.1 molar equivalents of water
same,Weight gain first sorption curve,[1]; 90% RH,9.16%
same,Weight gain second sorption curve,[1]; 90% RH,9.19%
same,Ki,recombinant human GSK3β,2.3 nM
same,Ki,[2],113 nM
"Nc1ncc(-c2ccc(C(=O)N3CCNCC3)cc2)nc1-c1nc2cnccc2o1 [Example 14, (4-(5-Amino-6-(oxazolo[4,5-c]pyridin-2-yl)pyrazin-2-yl)phenyl)(piperazin-1-yl)methanone]",Ki,recombinant human GSK3β,3.2 nM
